Assay [1] has as its target T1, Genome polyprotein (dengue virus type 2, UniProt P29990). The assay is described as follows: Inhibition of recombinant N-terminal His-tagged DENV NS2B-NS3 protease expressed in Escherichia coli BL21(DE3) using Boc-GRR-AMC as substrate measured by flourescence based plate reader assay.
Assay [2] addresses T1, Genome polyprotein. The assay is described as follows: Competitive inhibition of recombinant N-terminal His-tagged DENV NS2B-NS3 protease expressed in Escherichia coli BL21(DE3) using Boc-GRR-AMC as substrate measured by flourescence based plate reader assay.
For assay [3], the target named is T2, Nonstructural protein 3 (Zika virus, UniProt A0A024AXB9). The assay is described as follows: Inhibition of C-terminal His-tagged ZIKV NSB2 (52 to 96 amino acids)-NS3 (1 to 184 amino acids) protease expressed in Escherichia coli BL21(DE3) preincubated for 10 mins followed by addition of Boc-GKR-AMC substrate and measured by flourescence based plate reader assay.

In assay [4] the target is T3, Genome polyprotein (West Nile virus, UniProt P06935). Briefly: Competitive inhibition of C-terminal His-tagged WNV NSB2 (52 to 96 amino acids)-NS3 (1 to 184 amino acids) protease expressed in Escherichia coli BL21(DE3) using Boc-GRK-AMC as substrate measured by flourescence based plate reader assay.
The target in assay [5] is T2, Nonstructural protein 3. The assay is described as follows: Competitive inhibition of C-terminal His-tagged ZIKV NSB2 (52 to 96 amino acids)-NS3 (1 to 184 amino acids) protease expressed in Escherichia coli BL21(DE3) preincubated for 10 mins followed by addition of Boc-GKR-AMC substrate and measured by flourescence based plate reader assay.
Assay [6] concerns the target T3, Genome polyprotein. Briefly: Inhibition of C-terminal His-tagged WNV NSB2 (52 to 96 amino acids)-NS3 (1 to 184 amino acids) protease expressed in Escherichia coli BL21(DE3) using Boc-GRK-AMC as substrate measured by flourescence based plate reader assay.
A further assay concerns West Nile virus. Briefly: Antiviral activity against West Nile virus infected in human Huh-7 cells assessed as inhibition of viral replication at 12.5 uM measured after 48 hrs by plaque assay relative to control. The format is functional.
A further assay has as its system Zika virus. Briefly: Antiviral activity against Zika virus infected in human Huh-7 cells assessed as inhibition of viral replication at 12.5 uM measured after 48 hrs by Renilla reporter based luciferase assay relative to control. The format is functional.

T2 sequence (A0A024AXB9 whole entry, the tested form may be a part): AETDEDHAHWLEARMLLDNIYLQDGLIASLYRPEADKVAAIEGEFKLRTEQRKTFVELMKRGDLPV
T3 sequence (P06935 1371-1501 limits assumed): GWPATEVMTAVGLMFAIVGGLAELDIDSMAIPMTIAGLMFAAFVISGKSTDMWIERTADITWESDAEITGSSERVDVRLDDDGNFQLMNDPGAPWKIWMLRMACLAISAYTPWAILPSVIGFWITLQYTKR
T3 sequence (P06935 1502-2120 limits assumed): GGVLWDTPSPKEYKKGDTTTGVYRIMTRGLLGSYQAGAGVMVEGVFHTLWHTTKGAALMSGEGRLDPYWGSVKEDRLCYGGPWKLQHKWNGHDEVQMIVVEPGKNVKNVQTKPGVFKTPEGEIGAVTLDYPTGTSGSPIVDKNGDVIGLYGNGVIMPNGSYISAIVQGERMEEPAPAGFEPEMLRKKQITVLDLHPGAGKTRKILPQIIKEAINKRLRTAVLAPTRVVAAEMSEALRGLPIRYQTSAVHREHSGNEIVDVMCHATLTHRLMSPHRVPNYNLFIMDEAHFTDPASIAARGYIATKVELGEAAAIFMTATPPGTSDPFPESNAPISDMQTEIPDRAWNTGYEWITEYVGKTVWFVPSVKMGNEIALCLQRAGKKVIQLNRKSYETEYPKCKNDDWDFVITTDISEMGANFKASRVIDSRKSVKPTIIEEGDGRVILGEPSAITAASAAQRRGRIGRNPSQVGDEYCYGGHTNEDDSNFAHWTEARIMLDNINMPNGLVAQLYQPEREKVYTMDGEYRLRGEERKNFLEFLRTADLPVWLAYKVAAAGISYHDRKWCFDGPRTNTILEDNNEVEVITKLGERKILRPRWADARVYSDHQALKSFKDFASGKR
T1 sequence (P29990 1346-1475 limits assumed): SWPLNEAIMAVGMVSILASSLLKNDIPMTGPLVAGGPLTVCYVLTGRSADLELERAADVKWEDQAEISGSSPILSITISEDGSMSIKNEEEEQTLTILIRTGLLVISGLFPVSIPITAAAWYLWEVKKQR
T1 sequence (P29990 1476-2093 limits assumed): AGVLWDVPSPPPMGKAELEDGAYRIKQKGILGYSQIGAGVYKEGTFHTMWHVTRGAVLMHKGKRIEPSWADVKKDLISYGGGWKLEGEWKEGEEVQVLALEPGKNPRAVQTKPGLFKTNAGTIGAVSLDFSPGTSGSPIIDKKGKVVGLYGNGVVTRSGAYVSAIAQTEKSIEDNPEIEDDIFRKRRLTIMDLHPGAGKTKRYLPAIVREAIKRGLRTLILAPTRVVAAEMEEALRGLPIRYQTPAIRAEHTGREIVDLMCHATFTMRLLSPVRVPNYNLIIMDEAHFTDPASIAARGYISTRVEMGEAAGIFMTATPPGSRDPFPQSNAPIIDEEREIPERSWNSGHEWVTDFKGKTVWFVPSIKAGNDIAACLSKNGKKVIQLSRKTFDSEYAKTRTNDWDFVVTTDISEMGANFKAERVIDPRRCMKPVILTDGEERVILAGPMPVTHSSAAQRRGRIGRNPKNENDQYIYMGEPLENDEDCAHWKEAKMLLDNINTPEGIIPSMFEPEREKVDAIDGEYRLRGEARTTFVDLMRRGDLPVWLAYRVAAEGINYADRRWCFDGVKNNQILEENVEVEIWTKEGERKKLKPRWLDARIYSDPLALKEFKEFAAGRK

Regarding `N=C(N)N[C@H]1CC[C@H](CNC(=O)[C@H](CCCCN)NC(=O)[C@H](CCCCN)NC(=O)Cc2ccc(OCCCCS)cc2)CC1`, the results for the IC50 at Genome polyprotein [1], against Nonstructural protein 3 [3] and on Genome polyprotein [6] were 17100 nM, 125 nM and 460 nM, respectively. Moreover, the figures for the Ki at Genome polyprotein [2], at Genome polyprotein [4] and at Nonstructural protein 3 [5] were 12700 nM, 343 nM and 79 nM, respectively.
With `NC(=O)c1ncn([C@@H]2O[C@H](CO)[C@@H](O)[C@H]2O)n1` [RIBAVIRIN], the results for the inhibition at 12.5 µM with West Nile virus and in the assay on Zika virus were 90% and 80%, respectively.

Source of the values: ChEMBL document CHEMBL5053560, “Nanoparticular Inhibitors of Flavivirus Proteases from Zika, West Nile and Dengue Virus Are Cell-Permeable Antivirals” (ACS Med Chem Lett, 2021).
